According to patent publication US9975917B1, “Pentacyclic triterpenoidal derivatives” (KING SAUD UNIVERSITY, priority 2017, dated 2018):

Assays:
5-Lipoxygenase [1] = molecular target: T1, 5-Lipoxygenase (Rattus norvegicus, UniProt P12527); test: 5-LOX product formation from 20 μM exogenous substrate in 105,000 g supernatants of rat PMNL, cell-free (System B); format: biochemical; settings: cell-free 105,000 g supernatant of rat PMNL, 20 μM arachidonic acid, 1 mM ATP, 1.8 mM CaCl2, 37° C. 5 min; means±standard deviation, n=6
T1 construct: from 20 μM exogenous substrate in 105.000 g supernatants of rat PMNL (System B); from tissue; host or cells: 105,000 g supernatant of sonicated peritoneal PMNL of Wistar rats
T1 sequence (P12527 1-673): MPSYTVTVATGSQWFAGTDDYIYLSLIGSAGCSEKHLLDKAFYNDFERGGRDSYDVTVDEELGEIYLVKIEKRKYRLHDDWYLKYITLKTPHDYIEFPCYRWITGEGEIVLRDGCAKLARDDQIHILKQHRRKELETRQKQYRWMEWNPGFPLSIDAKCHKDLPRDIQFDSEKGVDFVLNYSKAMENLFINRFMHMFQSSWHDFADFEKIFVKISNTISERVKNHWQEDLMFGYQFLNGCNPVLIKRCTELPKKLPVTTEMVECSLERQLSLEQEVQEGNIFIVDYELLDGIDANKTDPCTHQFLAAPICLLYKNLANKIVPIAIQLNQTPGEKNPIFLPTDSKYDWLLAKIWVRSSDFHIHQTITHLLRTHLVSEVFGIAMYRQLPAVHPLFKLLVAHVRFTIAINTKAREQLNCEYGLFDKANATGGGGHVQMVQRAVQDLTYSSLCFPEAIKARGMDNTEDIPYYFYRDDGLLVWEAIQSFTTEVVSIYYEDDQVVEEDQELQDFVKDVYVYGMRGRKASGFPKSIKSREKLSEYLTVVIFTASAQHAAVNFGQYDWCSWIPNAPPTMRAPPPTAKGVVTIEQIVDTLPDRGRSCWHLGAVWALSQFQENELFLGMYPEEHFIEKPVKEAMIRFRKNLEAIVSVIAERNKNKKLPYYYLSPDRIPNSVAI
Method: (§1) Glycogen-elicited rat peritoneal PMNL were collected 4 hours after the injection of a glycogen solution (5%) in Dulbecco's phosphate-buffered saline (PBS) into the peritoneum of 300-350 g Wistar rats. The washed cells (>90% PMNL) were lysed at 2×10^7 cells mL^−1 by sonication (3×5 s, digital Sonifier) in PBS containing 1 mm EDTA, and were subjected to sequential centrifugation at 10,000 and 105,000 g for 10 and 60 min (4° C.), respectively. Freshly obtained PMNL suspensions and aliquots of the 105,000 g supernatants were assayed for 5-lipoxygenase activity.
(§2) For 5-lipoxygenase product formation from endogenous arachidonic acid, glycogen-elicited rat peritoneal PMNL (1×10^7 cells) were stimulated at 37° C. for 5 min by ionophore A23187 and Ca^2+. The 5-lipoxygenase activity in the cell-free system was tested in aliquots (corresponding to 1×10^7 cells) of the 105,000 g supernatant fraction of rat PMNL in the presence of 1 mm ATP, 1.8 mM CaCl2, 1 mM EDTA, and 20 μM arachidonic acid at 37° C. for 5 min. In both intact cells and cell-free tests, the incubations were terminated by cooling to 4° C. and acidification to pH of 3 with formic acid. For inhibition studies, the test compounds dissolved in dimethyl sulphoxide (DMSO) were added 5 min prior to initiation.
(§3) Inhibitors and non-inhibitory pentacyclic triterpenes were added simultaneously. All incubations, including controls, were carried out in the presence of 0.5% DMSO. The 5-lipoxygenase products were quantified after the addition of 170 ng PGB2 as an internal standard by extraction, with RP-HPLC separation and ultraviolet detection of products. With intact rat PMNL and the 105,000 g supernatant fraction the main products from arachidonic acid of 5 min incubations were leukotriene B4 (LTB4), 6-trans-LTB4, 12-epi-6-trans-LTB4 and 5-HETE along with negligible amounts of 5(S), 12(S)-diHETE.
(§4) FIG. 2 is a graph showing the effects of the pentacyclic triterpenoidal derivatives on 5-Lox product formation for System A. FIG. 3 is a graph showing the effects of the pentacyclic triterpenoidal derivatives on 5-Lox product formation for System B. Inhibition concentrations (IC50) of the biological effect of each of the compounds were determined after logit-log transformation of the data for each experiment. Data of independent observations (n=6) are shown as means±standard deviation.

5-Lipoxygenase [2] = molecular target: T1, 5-Lipoxygenase; test: 5-LOX product formation from endogenous arachidonic acid in ionophore-stimulated intact rat PMNL (System A); format: cell-based; settings: ionophore A23187 and Ca2+, 37° C. 5 min, means±standard deviation, n=6
Method: as §1, §2, §3, §4

| SMILES | IC50 (5-Lipoxygenase [1]) [µM] | IC50 (5-Lipoxygenase [2]) [µM] | melting point [°C] |
| --- | --- | --- | --- |
| CC1CCC2(C)CCC3(C)C(=CC(=O)C4C5(C)CCC(O)C(C)(C(=O)O)C5CCC43C)C2C1C (stereo not drawn) [11-keto-β-boswellic acid/1, 11-keto-β-boswellic acid, reference compound] | 14.6 | 2.8 |  |
| CC(=O)O[C@@H]1CC[C@@]2(C)[C@@H](CC[C@]3(C)[C@@H]2C(=O)C=C2[C@@H]4[C@@H](C)[C@H](C)CC[C@]4(C)CC[C@]23C)[C@@]1(C)C(=O)O [AKBA, Acetyl-11-keto-β-boswellic acid, reference compound] | 7 | 1.5 |  |
| CC1CCC2(C)CCC3(C)C(=CC(=O)C4C5(C)CCC(=O)C(C)(C(=O)Cl)C5CCC43C)C2C1C (stereo not drawn) [Compound 3, 3,11-dioxo-urs-12-en-24β-acid chloride] | 0.34 | 0.19 |  |
| CC1CCC2(C)CCC3(C)C(=CC(=O)C4C5(C)CCC(=O)C(C)(c6ccccc6)C5CCC43C)C2C1C (centres unmarked) [Compound 5, 24-norurs-12-en-24(phenyl)-3,11-dione] | 0.28 | 0.17 | 256 |
| CC1CCC2(C)CCC3(C)C(=CC(=O)C4C5(C)C=CC(=O)C(C)(c6ccccc6)C5CCC43C)C2C1C (centres unmarked) [Compound 7, 24-nor-urs-1,12-diene-24(phenyl)-3,11-dione] | 0.24 | 0.12 | 267 |

These reach a lower IC50 (5-Lipoxygenase [1]). Values come first.

| IC50 (5-Lipoxygenase [1]) [µM] | IC50 (5-Lipoxygenase [2]) [µM] | melting point [°C] | SMILES |
| --- | --- | --- | --- |
| 0.098 | 0.078 | 300 | CC1CCC2(C)CCC3(C)C(=CC(=O)C4C5(C)CCC(=O)C(C)(C(=O)c6ccccc6)C5CCC43C)C2C1C (centres unmarked) [Compound 4, 3,11-dioxo-24(phenyl)-urs-12-en-24-one] |
| 0.044 | 0.021 |  | CC1CCC2(C)CCC3(C)C(=CC(=O)C4C5(C)C=CC(=O)C(C)(C(=O)c6ccccc6)C5CCC43C)C2C1C (centres unmarked) [Compound 6, 3,11-dioxo-24(Phenyl)-urs-1,12-diene-24-one] |
